Results taken from ChEMBL document CHEMBL4428040, “8-Hydroxyquinolines in medicinal chemistry: A structural perspective” (Eur J Med Chem, 2016).

Tests used:
[1] = system: HeLa; test: Cytotoxicity against human HeLa cells assessed as reduction in cell viability after 48 hrs by resazurin assay; type: functional, cell-based
[2] = system: HeLa; test: Cytotoxicity against human HeLa cells assessed as reduction in cell viability at 1:1 CuCl2:compound molar ratio after 48 hrs by resazurin assay; type: functional, cell-based
[3] = system: HeLa; test: Ionophoric activity in human HeLa cells assessed as intracellular metal accumulation at 4.2 uM cotreated with Fe incubated for 6 hrs by ICP-AES analysis relative to control; type: functional
[4] = system: HeLa; test: Ionophoric activity in human HeLa cells assessed as intracellular metal accumulation at 11.3 uM cotreated with Co incubated for 6 hrs by ICP-AES analysis relative to control; type: functional
[5] = system: HeLa; test: Ionophoric activity in human HeLa cells assessed as intracellular metal accumulation at 11.3 uM cotreated with Ni incubated for 6 hrs by ICP-AES analysis relative to control; type: functional
[6] = system: HeLa; test: Ionophoric activity in human HeLa cells assessed as intracellular metal accumulation at 1.8 uM cotreated with Cu incubated for 6 hrs by ICP-AES analysis relative to control; type: functional
[7] = system: HeLa; test: Growth inhibition of human HeLa cells; type: functional, cell-based
[8] = system: HeLa; test: Potency index, ratio of CQ IC50 to compound IC50 for human HeLa cells; type: functional
[9] = system: HeLa; test: Growth inhibition of human HeLa cells in presence of copper; type: functional, cell-based

IC50 [7] [µM] | IC50 [9] [µM] | Compound | IC50 [1] [µM] | IC50 [2] [µM] | fold change (FC) [3] | fold change (FC) [4] | fold change (FC) [5] | fold change (FC) [6] | Ratio IC50 [8]
 |  | Oc1cccc2ccc(CCc3ccc4cccc(O)c4n3)nc12 | 23.7 | 1.8 | 1.8 | 2.1 | 2.1 | 13.7 | 
0.71 | 0.06 | Cc1ccc(OS(=O)(=O)N2CCN(Cc3cc([N+](=O)[O-])c4cccnc4c3O)CC2)cc1 |  |  |  |  |  |  | 26
 |  | Oc1cccc2cccnc12 [OXYQUINOLINE] | 13.5 |  |  |  |  |  | 
